The target of data set [1] is human Nav1.8 sodium channel (Homo sapiens, UniProt Q9Y5Y9). The data set is described as follows: Blocking activity on sodium channel 1.8 (Nav1.8), whole-cell manual patch clamp. The class given is cell-based. As to conditions: for inhibition at 0.001 µM: read-out: inhibition Percent @1 nM, 1 nM compound. For orientation: The patch-clamp technique gives a direct electrical read-out from membranes.

A short description of data set [2]: In vivo pharmacokinetics in rats, single intravenous injection or oral gavage. As to conditions: male, SD, plasma, Rat; for Vd: read-out: Vss. Here is the method: The in vivo pharmacokinetics in rats were evaluated via a single intravenous injection or oral gavage administration in this test example. • 1. Test Methods and Conditions: Male SD rats were fasted overnight and administered a single intravenous dose of 2 mg/kg or 1 mg/kg of the test compound (solvent for Intravenous administration was 5% DMSO/10% Solutol® HS 15/10% EtOH/75% saline, with a dosing volume of 5 mL/kg) and an oral gavage dose of 10 mg/kg or 5 mg/kg of the test compound (solvent for administration was 0.5% CMC-Na, with a dosing volume of 10 mL/kg), respectively. • 2. Sampling Information: Blood samples (0.2 mL) were collected from the retroorbital venous plexus at the designated time points: 0.25, 0.5, 1.0, 2.0, 3.0, 4.0, 6.0, 8.0, and 24 hours before and after dosing (a 5 min sampling point was added for the intravenous administration group), respectively. The samples were placed in EDTA-K2 tubes and centrifuged at 11,000 rpm for 5 minutes. Plasma was separated and frozen at -20°C. • 3. Assay Information: LC/MS/MS was used to determine the concentration of the parent drug in rat/mouse plasma following intravenous and oral gavage administration of the test compound. Pharmacokinetic parameters in rat/mouse plasma were calculated for both administration routes, and the bioavailability of each compound in rats was also calculated. Table 5: Intravenous Pharmacokinetic Information of Representative Compounds

[3] abbreviates: intravenous, single dose 2 mg/kg or 1 mg/kg (figure not given).

human Nav1.8 sodium channel, sequence (Q9Y5Y9 whole entry): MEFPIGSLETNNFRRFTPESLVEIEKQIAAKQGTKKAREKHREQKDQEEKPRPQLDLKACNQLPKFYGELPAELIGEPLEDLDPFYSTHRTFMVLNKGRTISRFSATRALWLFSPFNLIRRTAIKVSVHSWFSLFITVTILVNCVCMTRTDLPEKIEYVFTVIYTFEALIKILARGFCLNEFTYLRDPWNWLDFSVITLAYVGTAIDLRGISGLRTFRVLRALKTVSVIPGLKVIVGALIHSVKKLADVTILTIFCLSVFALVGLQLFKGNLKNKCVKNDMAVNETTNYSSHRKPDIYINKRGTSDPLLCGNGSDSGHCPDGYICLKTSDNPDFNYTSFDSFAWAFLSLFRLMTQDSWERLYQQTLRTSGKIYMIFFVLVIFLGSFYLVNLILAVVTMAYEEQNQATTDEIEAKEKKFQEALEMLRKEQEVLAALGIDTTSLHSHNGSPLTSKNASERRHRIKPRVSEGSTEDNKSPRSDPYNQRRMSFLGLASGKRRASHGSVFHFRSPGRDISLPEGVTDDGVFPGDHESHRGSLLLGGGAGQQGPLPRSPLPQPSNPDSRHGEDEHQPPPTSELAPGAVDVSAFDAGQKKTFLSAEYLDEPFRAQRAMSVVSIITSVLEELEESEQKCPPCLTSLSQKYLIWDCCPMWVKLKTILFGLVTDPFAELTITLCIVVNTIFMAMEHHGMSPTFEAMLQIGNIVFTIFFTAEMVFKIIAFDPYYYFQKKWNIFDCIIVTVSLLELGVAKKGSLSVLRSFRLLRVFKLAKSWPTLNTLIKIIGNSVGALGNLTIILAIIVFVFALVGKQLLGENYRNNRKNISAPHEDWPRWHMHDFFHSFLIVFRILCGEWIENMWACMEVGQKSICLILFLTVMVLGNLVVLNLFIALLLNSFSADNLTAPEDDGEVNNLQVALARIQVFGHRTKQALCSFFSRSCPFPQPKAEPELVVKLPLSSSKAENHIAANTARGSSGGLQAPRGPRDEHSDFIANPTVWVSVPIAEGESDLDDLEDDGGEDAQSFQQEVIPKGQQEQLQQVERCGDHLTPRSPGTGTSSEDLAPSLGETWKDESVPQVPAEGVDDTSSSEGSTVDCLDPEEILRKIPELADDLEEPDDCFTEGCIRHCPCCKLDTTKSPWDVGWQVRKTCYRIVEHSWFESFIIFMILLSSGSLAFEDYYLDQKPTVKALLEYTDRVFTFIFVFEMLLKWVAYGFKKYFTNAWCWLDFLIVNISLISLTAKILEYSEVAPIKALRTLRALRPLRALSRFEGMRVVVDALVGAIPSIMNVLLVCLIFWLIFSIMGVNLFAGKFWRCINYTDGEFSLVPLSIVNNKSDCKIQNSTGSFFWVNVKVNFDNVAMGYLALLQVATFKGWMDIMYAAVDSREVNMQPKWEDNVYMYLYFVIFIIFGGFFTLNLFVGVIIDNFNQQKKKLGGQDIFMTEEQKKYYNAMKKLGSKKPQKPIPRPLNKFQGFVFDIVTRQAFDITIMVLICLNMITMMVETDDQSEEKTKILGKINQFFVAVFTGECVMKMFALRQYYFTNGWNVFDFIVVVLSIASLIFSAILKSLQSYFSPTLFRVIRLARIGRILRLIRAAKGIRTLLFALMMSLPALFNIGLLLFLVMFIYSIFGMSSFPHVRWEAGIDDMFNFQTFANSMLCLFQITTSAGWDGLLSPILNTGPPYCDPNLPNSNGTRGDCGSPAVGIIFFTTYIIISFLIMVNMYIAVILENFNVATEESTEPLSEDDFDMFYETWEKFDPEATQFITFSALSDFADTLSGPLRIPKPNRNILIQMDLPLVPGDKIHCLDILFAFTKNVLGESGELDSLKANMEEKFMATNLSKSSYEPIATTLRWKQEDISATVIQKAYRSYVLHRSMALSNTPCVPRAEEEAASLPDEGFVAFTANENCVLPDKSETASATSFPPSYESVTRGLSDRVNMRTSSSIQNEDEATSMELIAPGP

As a reminder, the inhibition is the share of the control response that was lost under treatment. As a reminder, the AUC(0-t) is the area under the concentration-time curve up to a stated or last time point. A high value points to high exposure. The half-life is how long it takes for the measured level to halve. Low values mean rapid decline, high ones slow decline. By Cmax is commonly meant the peak of the concentration-time curve. The Tmax is the time at which the peak concentration occurs. As usually defined, the bioavailability is the share of a dose that reaches the circulation, judged against a reference dose that is usually intravenous. High values mean good availability, low ones poor availability. On to `CC(C)c1nc(N2CCCC(F)(F)CC2)c(C(=O)Nc2ccc(F)c(C(N)=NO)c2)cc1Cl` [Compound I-24, 5-chloro-2-(4,4-difluoroazepan-1-yl)-N-(4-fluoro-3-(N'-hydroxyamidino)phenyl)-6-isop ropylnicotinamide], for which, in data set [1], the inhibition at 0.001 µM came out at 56%. In data set [2] (setting [3]), the AUC(0-t) was found to be 1260 ng·h/mL, the clearance is 12.8 mL/min/kg, the half-life was 2 h and the Vd was found to be 1.38 L/kg. Moreover, in data set [2] (oral gavage, 5mg/kg), the area under the curve AUC(0-t) was 1950 ng·h/mL, the highest level (Cmax) was 244 ng/mL, the Tmax worked out at 2 h and the half-life was 2.73 h. Further, the bioavailability in data set [2] (oral gavage, 5mg/kg) turned out to be 30.9%.
Turning to `Cc1nc(N2CCCC(F)(F)CC2)c(C(=O)Nc2ccc(F)c(C(N)=NO)c2)cc1Cl` [Compound I-1, 5-chloro-2-(4,4-difluoroazepan-1-yl)-N-(4-fluoro-3-(N'-hydroxyamidino)phenyl)-6-met hylnicotinamide], in data set [1], the inhibition at 0.001 µM amounted to 71%. In addition, in data set [2] (setting [3]), the AUC(0-t) was determined as 1290 ng·h/mL, the clearance was found to be 29.6 mL/min/kg, the half-life is 0.723 h and the Vd worked out at 0.638 L/kg. Further, in data set [2] (oral gavage, 10mg/kg), the AUC(0-t) was found to be 546 ng·h/mL, the peak level (Cmax) was 433 ng/mL, the Tmax amounted to 0.5 h and the half-life is 1.49 h. The bioavailability in data set [2] (oral gavage, 10mg/kg) was 8.7%.
Turning to `NC(=NO)c1cc(NC(=O)c2cc(Cl)c(C(F)(F)F)cc2N2CCCC(F)(F)CC2)ccc1F` [Compound I-33, 5-chloro-2-(4,4-difluoroazepan-1-yl)-N-(4-fluoro-3-(N'-hydroxyamidino)phenyl)-4-(trifluoromethyl)benzamide], the inhibition at 0.001 µM in data set [1] was determined as 86%. Besides, in data set [2] (setting [3]), the AUC(0-t) worked out at 2270 ng·h/mL, the clearance turned out to be 7.44 mL/min/kg, the half-life is 2.67 h and the Vd came to 1.16 L/kg. Also, in data set [2] (oral gavage, 5mg/kg), the AUC(0-t) was determined as 8640 ng·h/mL, the Cmax is 623 ng/mL, the Tmax was 6 h and the half-life is 5.12 h. Further, in data set [2] (oral gavage, 5mg/kg), the bioavailability came out at 38.9%.
As to `NC(=NO)c1cc(NC(=O)c2cc(Cl)c(C(F)(F)F)nc2N2CCCC(F)(F)CC2)ccc1F` [Compound I-36, 5-chloro-2-(4,4-difluoroazepan-1-yl)-N-(4-fluoro-3-(N'-hydroxyamidino)phenyl)-6-(trifluoromethyl)nicotinamide], in data set [1], the inhibition at 0.001 µM was 50%. In data set [2] (setting [3]), the AUC(0-t) was determined as 4440 ng·h/mL, the clearance was 3.91 mL/min/kg, the half-life was 3.28 h and the Vd was 0.823 L/kg. In data set [2] (oral gavage, 5mg/kg), the AUC(0-t) was 4410 ng·h/mL, the concentration peaked (Cmax) at 386 ng/mL, the Tmax amounted to 4.3 h and the half-life is 3.15 h. The same compound returned a bioavailability in data set [2] (oral gavage, 5mg/kg) of 38.9%.
As a reminder, the IC50 is the concentration at which inhibition is half-maximal. As for `COc1c([C@H]2[C@H](C(=O)Nc3ccnc(C(N)=O)c3)O[C@@](C)(C(F)(F)F)[C@H]2C)ccc(F)c1F` [VX-548, reference compound], the midpoint of inhibition in data set [1], the IC50, lay at 0.34 ± 0.04 nM. Moreover, in data set [2] (setting [3]), the area under the curve AUC(0-t) amounted to 804 ng·h/mL, the clearance was found to be 20.7 mL/min/kg, the half-life was 0.67 h and the Vd was 0.92 L/kg. Further, in data set [2] (oral gavage, 5mg/kg), the area under the curve AUC(0-t) turned out to be 518 ng·h/mL, the concentration peaked (Cmax) at 157 ng/mL, the Tmax is 0.5 h and the half-life is 2.68 h. This compound had a bioavailability in data set [2] (oral gavage, 5mg/kg) of 14%.
Regarding `NC(=NO)c1cccc(NC(=O)c2c(N3CCCC(F)(F)CC3)ccc(Cl)c2C(F)(F)F)c1` [Compound I-49, 5-chloro-2-(4,4-difluoroazepan-1-yl)-N-(3-(N'-hydroxyamidino)phenyl)-6-(trifluoromethyl)benzamide], in data set [1] (read-out: inhibition Percent @10 nM, 10 nM compound), the inhibition at 0.01 µM came to 77%.
As for `NC(=NO)c1cc(NC(=O)c2c(N3CCCC(F)(F)CC3)ccc(C(F)(F)F)c2Cl)ccc1F` [Compound I-32, 2-chloro-6-(4,4-difluoroazepan-1-yl)-N-(4-fluoro-3-(N'-hydroxyamidino)phenyl)-3-(trifluoromethyl)benzamide], the inhibition at 0.001 µM in data set [1] was 50%.
